In US11779015B2, “Pesticide compositions” (FUNDACIÓ CENTRE DE REGULACIÓ GENÒMICA, priority 2017, dated 2023):
“Also recorded” adds a separate entry of the source.

What was measured:
[1] = tested on: D. suzukii; assay: Airborne toxicity petri dish assay, adult flies exposed to VOC vapours (FIG. 1A); format: in vivo, Drosophila suzukii; conditions: for LD50 (expected concentration at which 50% of the flies die): D. suzukii adults, vapours from solution in paraffin oil, within an hour; for T50 (time at which 50% of the flies were dead) / T50: D. suzukii; for T50: 10% vol; for airborne toxicity/lethality in the initial screen with a high dose (words): VOC at 10 M in paraffin oil, vapour exposure, 1 hour; for specificity of toxicity, D. suzukii versus D. melanogaster: at least at the 3, 5 and 10% vol concentrations
Procedure: A selection of compounds according to the invention were tested for airborne toxicity to D. suzukii by exposing a population of adult D. suzukii flies to the vapours of the compound using an experimental set up as shown on FIG. 1A.
(§1) In particular, adult flies 2 were exposed to compositions 4 comprising one or more of a selection of VOCs according to the invention or a comparative example, in a petri dish 6. The compositions 4 were loaded onto the lid 6a of the petri dish 6 and the flies were placed into the base 6b of the dish, which was then covered by a sheet of plastic mesh netting 8 to avoid direct contact of the flies 2 with the compositions 4, before replacing the lid 6a.
[…] Four drops of 50 microlitres were dispensed into reinforcement rings (not shown) fixed on the inner surface of the petri dish lid 6a.
The experimental set up used was as described in relation to FIG. 1A.
The data is shown as averages±SEM based on 3 to 6 trials for each condition.

[2] = tested on: D. melanogaster; assay: as above; format: in vivo, Drosophila melanogaster; conditions: for LD50 (expected concentration at which 50% of the flies die): D. melanogaster adults, vapours from solution in paraffin oil, within an hour
Excerpt: as §1, with “6a. The onset of paralysis/loss of locomotion control, ultimately resulting in death of the flies 2, was monitored over a period of 1 hour or until all flies 2 were dead, determined when fly wings were vertical (similar to the protocol described in Legal et al. 1992 and 1994).” for “6a.”
Having established that the VOCs of the invention are toxic to Drosophila spp., and in particular, D. suzukii, upon exposure to the vapours from a 10% vol. solution, the inventors set out to determine the range of concentrations at which the pesticide VOCs of the invention are expected to be lethal to Drosphila spp. Two species were chosen: the pest D. suzukii and the common Drosophila model D. melanogaster. Two exemplary compounds were chosen: (E)-2-hexenal and methyl benzoate, both of which were shown in Example 1 to be highly toxic to D. suzukii. The experimental set up used was as described in relation to FIG. 1A.
FIGS. 3A and 3C show the proportion of dead flies as a function of time in minutes, when exposed to the vapours of (E)-2-hexenal (FIG. 3A) or methyl benzoate (FIG. 3C) from a 1%, 5%, 10%, or 20% solution in paraffin oil or from pure (E)-2-hexenal or methyl benzoate. […] The data is shown as averages±SEM based on 3 to 6 trials for each condition. […]

[3] = tested on: D. suzukii; assay: Positional and ovipositional preference on food substrate plated with compound; format: in vivo, Drosophila suzukii; conditions: for positional preference/avoidance of adult flies: food plated with compound vs blank, monitored over 5 hours
Procedure: Adult flies 200 are placed in a plastic box 600 with mesh-netting 800 in the lid to allow aeration. Two food sources 400a and 400b (for example petri dishes containing molasses-apple juice agar substrates) are placed into the box 600, of which one 600a is plated with a compound to be tested, and the other 600b is left blank as a control.
Using this experimental set up and pure (E)-2-hexenal or methyl benzoate, the positional preference of the flies was monitored over 5 hours. The ovipositional preference was measured after 24 hours by counting the number of eggs laid on either plate. […] The same experimental set up was used to test for positional and ovipositional preference using different concentrations of (E)-2-hexenal, i.e. 1.2% vol, 3.4% vol, 11.6% vol and 34% vol. The results of these assays are shown on FIG. 7C. All data shown represents the mean+S.E.M. over 2 to 6 trials per condition. In FIG. 7C, deviations marked by a star are associated with a unpaired t-test p-value below 0.05 following a one-way ANOVA test with F(4,22)=3.987 (p=0.017).
Petri dishes (∅ 6 cm) filled with 10 ml of a molasses-apple juice-agar medium acted as food substrate. These were plated with methyl benzoate or (E)-2-hexenal. Two Petri dishes were placed inside a plastic box (32×22×12 cm) with a mesh netting in the lid. One dish was plated with a thin layer of pure odour (1.8 μl (E)-2-hexenal or 0.9 μl methyl benzoate when used pure, or 50 μl of (E)-2-hexenal when used in diluted solutions), and the other was left blank as a control. More (E)-2-hexenal was used because its vapour pressure is 4 times lower than that of methyl benzoate and, thus, is prone to dissipate faster. 20 mixed sex adult flies were placed inside the plastic box and monitored every 0.5 hours, over a period of 5 hours, to assess their positional preference by counting the number of flies positioned on either plate. After 24 hours, their ovipositional preference was monitored by counting the number of eggs laid on either dish. Flies were cooled on ice for handling and discarded after each trial.

[4] = tested on: D. suzukii larvae; assay: Fly larva chemotaxis assay; format: in vivo, Drosophila suzukii; conditions: 1% vol in paraffin oil, 5 minutes
Procedure: Larvae were exposed to 1% vol solution of (E)-2-hexenal or methyl benzoate in paraffin oil loaded onto the lid of a petri dish. Their movement was tracked for 5 minutes. A preference index was quantified as the fraction of time larvae spent in a zone around the odour sources. A population of 15 larvae were used per trial and they were placed in the centre of the petri dish at the start of the experiment. The average distance of the larvae to the odour sources was also quantified over time. The results of this analysis are shown on FIG. 9, for each of the conditions where a VOC of the invention was used. A total of 10 trials were performed for each condition, i.e. for each VOC and fly species, and 30 trials were performed for a control condition, for which only the solvent paraffin oil was applied.
Behavioural experiments were performed with third instar foraging larvae. A group of approximately 15 larvae per trial was placed in a Petri dish and monitored during 5 minutes for their chemotactic behaviour, as larvae were exposed to an odour gradient in gas phase emanating from the two odour sources on the lid of the Petri dish. […] Larval behaviour was tracked using a video camera and the data derived was then analysed in Matlab (MathWorks) using custom-made programs to calculate additional time-series variables, and to determine the preference index and the distance of larvae to the source.

[5] = D. melanogaster, concentration 1% vol
[6] = D. melanogaster, concentration 5% vol
[7] = D. melanogaster, concentration 10% vol
[8] = D. melanogaster, concentration 20% vol
[9] = D. melanogaster, concentration 100% vol

SMILES | LD50 (expected concentration at which 50% of the flies die) [1] | T50 (time at which 50% of the flies were dead) ([1]; 1% concentration) | T50 [1] | T50 (time at which 50% of the flies were dead) ([1]; concentration 5% vol) | T50 (time at which 50% of the flies were dead) ([1]; concentration 10% vol) | T50 (time at which 50% of the flies were dead) ([1]; concentration 20% vol) | T50 (time at which 50% of the flies were dead) ([1]; concentration 100% vol) | airborne toxicity/lethality in the initial screen with a high dose (words) [1] | specificity of toxicity, D. suzukii versus D. melanogaster [1] | LD50 (expected concentration at which 50% of the flies die) [2] | T50 (time at which 50% of the flies were dead) [2, 5] | T50 (time at which 50% of the flies were dead) [2, 6] | T50 (time at which 50% of the flies were dead) [2, 7] | T50 (time at which 50% of the flies were dead) [2, 8] | T50 (time at which 50% of the flies were dead) [2, 9] | positional preference/avoidance of adult flies [3] | larval chemotactic response [4] | also measured
CCC/C=C/C=O [(E)-2-hexenal] | 3 % vol | not lethal | 4.1 min | 9.3 min | 4.1 min | 1.6 min | 1.2 min | highly toxic; also recorded: showed toxicity | specific toxicity towards D. suzukii | 13.8 % vol | not lethal | not lethal | not lethal | 6.5 min | 6.2 min | relatively weak | attractive chemotactic responses | lethality as a function of the sex of the flies ([1]; 5% vol in paraffin solution, adult D. suzukii, males vs females): males displayed more sensitivity; concentration from which flies avoid laying their eggs on the plated side ([3]; tested 1.2, 3.4, 11.6 and 34% vol, eggs counted after 24 hours): ≥ 3.4 % vol
COC(=O)c1ccccc1 [methyl benzoate, Methyl benzoate] | 3 % vol | not lethal | 5.9 min | 9.8 min | 5.9 min | 4.2 min | 2.8 min | highly toxic; also recorded: showed toxicity | specific toxicity towards D. suzukii | 7.5 % vol | non lethal | non lethal | 18.2 min | 9.8 min | 9.1 min | stronger avoidance response | strongly repulsive | T50 ([2]; D. melanogaster, 10% vol): 18.2 min; ovipositional preference (egg-laying) ([3]; food plated with pure compound vs blank, eggs counted after 24 hours): strong egg-laying deterrent
